Measurements as given in US8513245B2, “Pharmaceutical composition for reducing the area of myocardial infarction and its use” (Changzhou Hi-Tech District Multiple Dimension Industry …, priority 2007, dated 2013).
Counter-ions that a name gives are not always drawn.

Test system: rat model of AMI
Experiment: Protective effect in rat model of AMI (coronary ligation, NBT staining, infarcted myocardium weight)
Type: in vivo
Details: for IMW / IMW/HW (%): SD male rats, 4 h after ligation

SMILES: C[N+](C)(C)C[C@H](O)CC(=O)[O-] [LC, Levocarnitine]
- reduction of IMW/HW (%) in comparison with solvent control group (900 mg/kg levocarnitine): 22.9%
- IMW (LC 100 mg/kg i.p.): 139 ± 25.9 mg
- IMW/HW (%) (LC 100 mg/kg i.p.): 16.8 ± 3.33%
- IMW (LC 300 mg/kg i.p.): 141 ± 23.0 mg
- IMW/HW (%) (LC 300 mg/kg i.p.): 17.2 ± 3.04%
- IMW (LC 600 mg/kg i.p.): 139 ± 24.0 mg
- IMW/HW (%) (LC 600 mg/kg i.p.): 16.8 ± 3.10 %
- IMW (LC 900 mg/kg i.p.): 129 ± 23.8 mg
- IMW/HW (%) (LC 900 mg/kg i.p.): 15.8 ± 3.10 %

SMILES: COc1ccc(CN2CCNCC2)c(OC)c1OC [TMZ, trimetazidine hydrochloride]
- reduction of IMW/HW (%) in comparison with solvent control group (9 mg/kg trimetazidine, control 24.5%): 34.7%
- IMW (TMZ 1 mg/kg i.p.): 177 ± 20.2 mg
- IMW/HW (%) (TMZ 1 mg/kg i.p.): 22.8 ± 3.40%
- IMW (TMZ 3 mg/kg i.p.): 163 ± 20.2 mg
- IMW/HW (%) (TMZ 3 mg/kg i.p.): 21.0 ± 2.60 %
- IMW (TMZ 6 mg/kg i.p.): 132 ± 19.1 mg
- IMW/HW (%) (TMZ 6 mg/kg i.p.): 17.0 ± 3.20 %
- IMW (TMZ 9 mg/kg i.p.): 125 ± 15.2 mg
- IMW/HW (%) (TMZ 9 mg/kg i.p., hydrochloride): 16.0 ± 2.50 %
- IMW/HW (%) (TMZ 9 mg/kg i.p., listed as trimetazidine, hydrochloride): 16.0%
